Data taken from US11401277B2, “Anti-bacterial heterocyclic compounds and their synthesis” (Bugworks Research, Inc., priority 2017, dated 2022).
Converted amounts (≈) assume the structure as drawn. “And” between values parts separate entries of the source, which are not always exact repeats. Equal entries are not always repeated.

Columns and labels:
[1] = system: K. pneumoniae clinical strains; experiment: Susceptibility (MIC50 and MIC90 determination) studies, clinical strains; type: cell-based; details: CLSI
[2] = system: P. aurigenosa clinical strains; experiment: as above; type: cell-based; details: CLSI
[3] = system: P. aeruginosa [ATCC27853]; experiment: Neutropenic Lung Infection Model in Rat; type: in vivo; details: 30 mg/kg, i.v. bolus
Procedure: Animals were placed into an induction chamber and anaesthesia was induced by exposing the animals to 3-5% Isoflurane in an oxygen flow set at approximately (˜) 1 liter per minute (LPM). […] A gentle mixing of inoculum between two animals was followed for uniform distribution.
Meropenem was formulated in saline.
Entire Lung was aseptically isolated, weighed and placed into 1 mL of sterile CSDB broth, and homogenized (Omni Tip (220 V hand held)). Serial ten-fold dilutions of the lungs homogenates were prepared in sterile CSD broth and 0.05 mL of four dilutions for each tissue was plated onto CSDA agar plates. Bacterial colonies were enumerated following overnight incubation at 37° C. Bacterial densities were estimated as Log10 CFU/g lung. The Mean±SD Log10 CFU/g lung was estimated in each group.

E. coli [ATCC25922] = experiment: Urinary Tract Infection Rat Model (kidneys, bladder); details: 30 mg/kg, i.v. bolus
[4] = system: A. baumanni clinical strains; experiment: Susceptibility (MIC50 and MIC90 determination) studies, clinical strains; type: cell-based; details: CLSI
E. coli clinical strains = experiment: as above; type: cell-based; details: CLSI
[5] = system: E. cloacae clinical strains; experiment: as above; type: cell-based; details: CLSI
[6] = Klebsiella pneumoniae, Kpn clinical strains
[7] = individual animals, 24 h post infection
[8] = Escherichia coli, E. coli clinical strains

MIC50 [1, 6]: 1 µg/mL (≈ 2.61 µM)
MIC90 [1, 6]: 16 µg/mL (≈ 41.7 µM)
Minimum (MIC) ([1]; Kpn clinical strains, MIC50/MIC90 in μg/ml): 0.03 µg/mL
MIC ATCC13883 ([1]; Kpn reference strain ATCC13883, MIC50/MIC90 in μg/ml): 0.06 µg/mL (≈ 0.156 µM)
MIC50 ([2]; Pae clinical strains): 2 µg/mL (≈ 5.22 µM)
MIC90 ([2]; Pae clinical strains): 8 µg/mL (≈ 20.9 µM)
Minimum (MIC) ([2]; Pae clinical strains, MIC50/MIC90 in μg/ml): 0.03 µg/mL
MIC ATCC27853 ([2]; Pae reference strain ATCC27853, MIC50/MIC90 in μg/ml): 0.5 µg/mL (≈ 1.3 µM)
MIC50 ([4]; Aba clinical strains): 8 µg/mL (≈ 20.9 µM)
MIC90 ([4]; Aba clinical strains): 32 µg/mL (≈ 83.4 µM)
Minimum (MIC) ([4]; Aba clinical strains, MIC50/MIC90 in μg/ml, in µg/mL): 0.03125
MIC ATCC19606 ([4]; Aba reference strain ATCC19606, MIC50/MIC90 in μg/ml): 0.5 µg/mL (≈ 1.3 µM)
Minimum (MIC) (E. coli clinical strains; E. coli clinical strains, MIC50/MIC90 in μg/ml): 0.03 µg/mL
MIC ATCC25922 (E. coli clinical strains; E. coli reference strain ATCC25922, MIC50/MIC90 in μg/ml): 0.06 µg/mL (≈ 0.156 µM)
MIC50 (E. coli clinical strains; [8]): 0.06 µg/mL (≈ 0.156 µM)
MIC90 (E. coli clinical strains; [8]): 4 µg/mL (≈ 10.4 µM)
Minimum (MIC) ([5]; MIC50/MIC90 in μg/ml): 0.06 µg/mL
MIC50 ([5]; Enterobacter cloacae): 0.25 µg/mL (≈ 0.652 µM)
MIC90 ([5]; Enterobacter cloacae): 16 µg/mL (≈ 41.7 µM)
Structure (SMILES): C[C@@H](O)[C@H]1C(=O)N2C(C(=O)O)=C(S[C@@H]3CN[C@H](C(=O)N(C)C)C3)[C@H](C)[C@H]12 [Meropenem, meropenem, reference compound]
MEAN ± SD (Log10 CFU/g Lung) [3]: 5.43 ± 0.14 Log10 CFU/g Lung
Mean Log 10 CFU/g lung reduction (wrt 4 h PI control: 6.52 Log10CFU/g lung) [3]: 1.09 Log 10 CFU/g lung
Log10 CFU/g Lung [3, 7]: 5.35 Log10 CFU/g Lung and 5.36 Log10 CFU/g Lung and 5.59 Log10 CFU/g Lung
MEAN ± SD (Log10 CFU/g kidneys) (E. coli [ATCC25922]): 3.83 ± 0.27 Log10 CFU/g kidneys
MEAN ± SD (Log10 CFU/ml Bladder) (E. coli [ATCC25922]): 4.69 ± 0.32 Log10 CFU/ml Bladder
Mean Log10CFU/g kidney reduction (wrt 4 h PI control: 4.53 Log10CFU/g kidneys) (E. coli [ATCC25922]): 0.70 Log10CFU/g kidney
Mean Log10 CFU/ml Bladder reduction (wrt 4 h PI control: 5.72 CFU/ml Bladder) (E. coli [ATCC25922]): 1.03 Log10 CFU/ml Bladder
Log10 CFU/g (Left Kidney) (E. coli [ATCC25922]; [7]): 3.61 Log10 CFU/g and 3.92 Log10 CFU/g and 4.06 Log10 CFU/g
Log10 CFU/g (Right Kidney) (E. coli [ATCC25922]; [7]): 3.41 Log10 CFU/g and 4.12 Log10 CFU/g and 3.87 Log10 CFU/g
Log10 CFU/ml Bladder (E. coli [ATCC25922]; [7]): 4.87 Log10 CFU/ml Bladder and 4.33 Log10 CFU/ml Bladder and 4.89 Log10 CFU/ml Bladder
